Source: PMC11997985, “Synthesis and In Vitro Profiling of Psilocin Derivatives: Improved Stability and Synthetic Properties” (Journal of Medicinal Chemistry, 2025)

Tests used:
[1] = Peak area in microsome suspension compared with compounds in solution; type: in vitro ADME, human; details: peak area 15 seconds after addition of NADPH versus same amount (125 nM) in H2O/EtOH
Procedure: (§1) were taken at three timepoints, and the degradation was compared to determine if it was dependent on NADPH. Compound 4k […]
(§2) without the addition of NADPH. […]
(§3) microsomes that need to be activated by a co -factor.
(§4) Table S5 Percent of peak area found in microsome suspension 15 seconds after the addition of NADPH in comparison with the same amount dissolved in H2O/EtOH
(§5) No. Area at 0.25 min. in Area in solution % found in microsomes/NADPH (125 nM) microsome
(§6) Comparison with compounds in solution. A comparison was made between the peak area of the compounds in solution with that obtained in the microsome suspension directly after the addition of NADPH (about 0.25 minutes) (Table S5). Before the addition of NADPH, the compounds are equilibrated in the microsome suspension for approximately five minutes. All compounds were prepared in solution by diluting a portion of the DMSO solutions with H2O/EtOH (75:25) to 125 nM (the final concentration of compounds for analysis in the microsome assay).
(§7) For the compounds where no results from the microsome assay could be reported due to low peak area (4d, 4e, 4f & 5), less than one percent of the expected peak area as compared with the area in solution was detected. […]
(§8) degrade rapidly before the addition of the co-factor after five minutes in incubation. For compounds 4g, 4h, 4i & 4j, which were […]
(§9) higher relative peak areas were found. […]
(§10) without NADPH was only found at 15% of the area seen in solution in the microsome suspension.

[2] = Co-factor experiment: microsome suspension with and without NADPH; type: in vitro ADME, human; details: for Co-factor experiment: degradation with and without addition of NADPH compared; for microsomal CLint: human, human microsome suspension, both with and without the addition of NADPH, read-out: intrinsic clearance
Procedure: Therefore, additional experiments comparing stability with and without the addition of NADPH cofactor and a very short incubation period were performed (Tables S4 and S5). […] Due to the rapid observed degradation in microsomes, we decided to investigate the stability of five compounds in human plasma, aiming for a broad range of stabilities (Table 2, Table S6). It should be noted that esterase-labile compounds are notoriously difficult to study in microsomal stability studies.[36]
Table S3 Evaluation of metabolic stability in human microsomes
No. Metabolic stability Comment
4k <10/<10 Low retention in chromatography
8 <10/<10 Low retention in chromatography.
Table S4 Results from the modified microsome assay where degradation with and without the addition of NADPH was compared […]
4d Very low peak area for the first time point,
4e Very low peak area for the first time point,
4f Very low peak area for the first time point,
5 Very low peak area for the first time point,
8 No degradation without co -factor […]
metabolism by the microsomes (consisting mainly of cytochrome P450 enzymes) or if it was due to other factors, the compounds (with the exception of 4k) were incubated in the microsome suspension both with and without the addition of NADPH. Samples […]
as §1, §2, §3, §4, §5, §6, §7, §8, §9, §10

[3] = mice dosed with psilocybin or 4-AcO–DMT; cited from earlier work
[4] = Solid solubility assay, phosphate buffer pH 7.4; type: physicochemical; details: phosphate buffer pH 7.4, dry substance

Compound | % found in microsome suspension [1] | Co-factor experiment [2] | psilocin exposure compared with psilocybin [3] | microsomal CLint [2] | solubility at 24 h [4]
CN(C)CCc1c[nH]c2cccc(OCc3ccccc3)c12 [Compound 3, 4-Benzyloxy-N,N-dimethyltryptamine] | 88.5% | No degradation without co-factor |  |  | 
CC(=O)Oc1cccc2[nH]cc(CCN(C)C)c12.O=C(O)/C=C/C(=O)O [Compound 4a, 4-acetoxy-N,N-dimethyltryptamine] | 0.0% | Degradation without co-factor | nonsignificant difference in psilocin exposure | > 200 µL/min/mg | 
CN(C)CCc1c[nH]c2cccc(OC(=O)C3CC3)c12.O=C(O)/C=C/C(=O)O [Compound 4g] | 58% | Degradation without co-factor |  | > 200 µL/min/mg | 
CCOC(=O)Oc1cccc2[nH]cc(CCN(C)C)c12.O=C(O)/C=C/C(=O)O [Compound 4i] | 7.1% | Degradation without co-factor |  | > 200 µL/min/mg | 
CN(C)CCc1c[nH]c2cccc(OP(=O)(O)O)c12 [Compound 8, 4-phosphoryloxy-N,N-dimethyltryptamine, reference compound] | 81.5% | No degradation without co-factor |  |  | > 1000 µM
